# Test results taken from patent US20240270751A1, “Pyrazolopyridinone Compounds” (BeiGene Ltd., priority 2021, published 2024).
# Legend:
# DGKζ = DGKζ (Homo sapiens (Human), UniProt Q13574); experiment: Biochemical DGK IC50 assay, DGKζ ADP-Glo assay; details: 0.5 nM enzyme, 140 μM ATP, 80 μM DAG; read-out: DGKζ ADP-Glo assay IC50
# How it was run: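 ADP formation measured by ADP-Glo luminescence, with test compounds at final 1.55–10000 nM or 23.3–150000 nM. Enzyme: purified full-length human DGKζ from Sf9 insect cells; substrate: DAG/PS micelles in 25 mM HEPES pH 7.0, 0.5 mM EDTA, octyl glucoside.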
# DGKα = DGKα (Homo sapiens (Human), UniProt P23743); experiment: Biochemical DGK IC50 assay, DGKα ADP-Glo assay; details: 7.5 nM enzyme, 140 μM ATP, 80 μM DAG
# Chain of DGKα (P23743 whole entry): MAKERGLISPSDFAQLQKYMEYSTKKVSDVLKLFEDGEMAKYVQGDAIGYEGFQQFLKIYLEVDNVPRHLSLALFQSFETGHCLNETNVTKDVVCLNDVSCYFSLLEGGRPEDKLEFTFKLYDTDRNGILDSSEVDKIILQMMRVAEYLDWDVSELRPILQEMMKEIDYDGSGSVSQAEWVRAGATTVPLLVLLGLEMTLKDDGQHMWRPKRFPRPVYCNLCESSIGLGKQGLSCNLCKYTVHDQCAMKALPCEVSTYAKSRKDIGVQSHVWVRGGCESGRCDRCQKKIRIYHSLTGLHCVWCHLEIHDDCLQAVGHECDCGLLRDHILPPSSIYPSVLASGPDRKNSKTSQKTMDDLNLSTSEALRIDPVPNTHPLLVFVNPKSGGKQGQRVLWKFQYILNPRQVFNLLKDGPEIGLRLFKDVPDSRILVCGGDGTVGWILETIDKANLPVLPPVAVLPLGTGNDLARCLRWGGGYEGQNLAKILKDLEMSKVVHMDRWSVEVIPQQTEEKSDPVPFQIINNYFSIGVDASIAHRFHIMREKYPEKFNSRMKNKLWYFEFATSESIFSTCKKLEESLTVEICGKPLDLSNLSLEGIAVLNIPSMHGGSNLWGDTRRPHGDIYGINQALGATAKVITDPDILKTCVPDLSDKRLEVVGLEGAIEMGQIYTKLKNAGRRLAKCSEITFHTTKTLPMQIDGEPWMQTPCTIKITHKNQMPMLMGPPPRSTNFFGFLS
# How it was run: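 Compounds at final 1.55˜10000 nM or 23.3˜150000 nM were tested against full-length DGKα. Substrate was lipid micelles of DAG and PS resuspended in 25 mM HEPES pH 7.0 with 0.5 mM EDTA and 160 mM octyl β-D-glucopyranoside. ADP formed was detected by ADP-Glo.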
# Chain of DGKζ (Q13574 other isoform, or with tags, fused parts or gaps): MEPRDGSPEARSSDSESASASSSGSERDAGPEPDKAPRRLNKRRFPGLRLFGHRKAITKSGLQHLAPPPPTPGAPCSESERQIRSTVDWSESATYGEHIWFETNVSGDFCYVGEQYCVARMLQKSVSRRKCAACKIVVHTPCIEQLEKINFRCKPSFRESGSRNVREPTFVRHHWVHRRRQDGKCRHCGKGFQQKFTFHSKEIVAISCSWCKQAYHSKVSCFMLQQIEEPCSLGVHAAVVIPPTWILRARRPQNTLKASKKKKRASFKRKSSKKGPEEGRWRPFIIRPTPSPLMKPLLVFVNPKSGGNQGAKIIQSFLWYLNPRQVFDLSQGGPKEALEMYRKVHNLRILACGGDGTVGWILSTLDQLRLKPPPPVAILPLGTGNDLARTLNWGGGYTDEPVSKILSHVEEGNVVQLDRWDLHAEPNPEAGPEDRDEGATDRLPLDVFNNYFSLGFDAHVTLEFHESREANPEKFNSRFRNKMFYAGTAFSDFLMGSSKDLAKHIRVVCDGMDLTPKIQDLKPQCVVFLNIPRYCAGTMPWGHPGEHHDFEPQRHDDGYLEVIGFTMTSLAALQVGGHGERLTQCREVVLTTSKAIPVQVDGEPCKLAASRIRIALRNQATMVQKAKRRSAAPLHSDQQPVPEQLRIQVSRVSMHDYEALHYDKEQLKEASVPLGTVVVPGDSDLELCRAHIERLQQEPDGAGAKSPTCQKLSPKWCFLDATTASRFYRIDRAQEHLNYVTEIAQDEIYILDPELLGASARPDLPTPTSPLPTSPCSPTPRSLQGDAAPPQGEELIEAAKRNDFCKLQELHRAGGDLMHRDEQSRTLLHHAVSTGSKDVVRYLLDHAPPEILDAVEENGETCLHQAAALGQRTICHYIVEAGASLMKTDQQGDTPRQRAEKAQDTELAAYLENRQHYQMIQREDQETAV
SMILES,IC50 (DGKζ),IC50 (DGKα)
"CC(c1ccc2nccnc2c1)N1C[C@H](C)N(c2cc(=O)n(C)c3c[nH]nc23)C[C@H]1C (stereo partly drawn) [Compound A1, 7-((2S,5R)-2,5-dimethyl-4-(1-(quinoxalin-6-yl)ethyl)piperazin-1-yl)-4-methyl-2,4-dihydro-5H-pyrazolo[4,3-b]pyridin-5-one]",> 150 µM,1.8 µM
"C[C@@H]1CN(c2cc(=O)n(C)c3cn(CC#N)nc23)[C@@H](C)CN1[C@@H](C)c1ccc2nccnc2c1 [Compound A2a, 2-(7-((2S,5R)-2,5-dimethyl-4-((S)-1-(quinoxalin-6-yl)ethyl)piperazin-1-yl)-4-methyl-5-oxo-4,5-dihydro-2H-pyrazolo[4,3-b]pyridin-2-yl)acetonitrile]",0.052 µM,4.8 µM
"C[C@@H]1CN(c2cc(=O)n(C)c3cn(CC#N)nc23)[C@@H](C)CN1[C@H](C)c1ccc2nccnc2c1 [Compound A2b, 2-(7-((2S,5R)-2,5-dimethyl-4-((R)-1-(quinoxalin-6-yl)ethyl)piperazin-1-yl)-4-methyl-5-oxo-4,5-dihydro-2H-pyrazolo[4,3-b]pyridin-2-yl)acetonitrile]",13 µM,19 µM
CC(c1ccc2nccnc2c1)N1C[C@H](C)N(c2cc(=O)n(C)c3cn(C)nc23)C[C@H]1C (some centres unmarked) [Compound A3],3.8 µM,3.2 µM
COCCn1cc2c(n1)c(N1C[C@@H](C)N(C(C)c3ccc4nccnc4c3)C[C@@H]1C)cc(=O)n2C (some centres unmarked) [Compound A5],3.5 µM,21 µM
CC(c1ccc2nccnc2c1)N1C[C@H](C)N(c2cc(=O)n(C)c3cn(CC(N)=O)nc23)C[C@H]1C (some centres unmarked) [Compound A6],> 150 µM,> 150 µM
COC(=O)Cn1cc2c(n1)c(N1C[C@@H](C)N(C(C)c3ccc4nccnc4c3)C[C@@H]1C)cc(=O)n2C (some centres unmarked) [Compound A7],1.03 µM,> 10 µM
CC(c1ccc2nccnc2c1)N1C[C@H](C)N(c2cc(=O)n(C)c3cn(C(C)C#N)nc23)C[C@H]1C (some centres unmarked) [Compound A8],0.57 µM,31 µM
CC(c1ccc2nccnc2c1)N1C[C@H](C)N(c2cc(=O)n(C)c3cn(CCO)nc23)C[C@H]1C (some centres unmarked) [Compound A9],30 µM,27 µM
CC(c1ccc2nccnc2c1)N1C[C@H](C)N(c2cc(=O)n(C)c3cn(CC4CC4)nc23)C[C@H]1C (some centres unmarked) [Compound A10],18 µM,110 µM
CC(c1ccc2nccnc2c1)N1C[C@H](C)N(c2cc(=O)n(C)c3cn(CCN(C)C)nc23)C[C@H]1C (some centres unmarked) [Compound A11],> 150 µM,> 150 µM
CC(c1ccc2nccnc2c1)N1C[C@H](C)N(c2cc(=O)n(C)c3cn(CC4CO4)nc23)C[C@H]1C (some centres unmarked) [Compound A12],2.2 µM,> 150 µM
CC(c1ccc2nccnc2c1)N1C[C@H](C)N(c2cc(=O)n(C)c3cn(S(C)(=O)=O)nc23)C[C@H]1C (some centres unmarked) [Compound A13],3.7 µM,5.9 µM
CC(c1ccc2nccnc2c1)N1C[C@H](C)N(c2cc(=O)n(C)c3cn(C4CCC4)nc23)C[C@H]1C (some centres unmarked) [Compound A14],12 µM,52 µM
CC(c1ccc2nccnc2c1)N1C[C@H](C)N(c2cc(=O)n(C)c3cn(C(=O)C4CC4)nc23)C[C@H]1C (some centres unmarked) [Compound A15],34 µM,5.9 µM
"CC(c1ccc2nccnc2c1)N1C[C@H](C)N(c2cc(=O)n(C)c3cn(C4(C#N)CC4)nc23)C[C@H]1C (stereo partly drawn) [Compound A16, 1-(7-((2S,5R)-2,5-dimethyl-4-(1-(quinoxalin-6-yl)ethyl)piperazin-1-yl)-4-methyl-5-oxo-4,5-dihydro-2H-pyrazolo[4,3-b]pyridin-2-yl)cyclopropane-1-carbonitrile]",4.2 µM,9.6 µM

# Further lines, results first:
IC50 (DGKζ),IC50 (DGKα),SMILES
13 µM,9 µM,"CC(c1ccc2nccnc2c1)N1C[C@H](C)N(c2cc(=O)n(C)c3cn(C4CC4)nc23)C[C@H]1C (stereo partly drawn) [Compound A17, 2-cyclopropyl-7-((2S,5R)-2,5-dimethyl-4-(1-(quinoxalin-6-yl)ethyl)piperazin-1-yl)-4-methyl-2,4-dihydro-5H-pyrazolo[4,3-b]pyridin-5-one]"
3.7 µM,5.7 µM,CC(c1ccc2nccnc2c1)N1C[C@H](C)N(c2cc(=O)n(C)c3cn(C(C)C)nc23)C[C@H]1C (some centres unmarked) [Compound A18]
24 µM,> 150 µM,"CCS(=O)(=O)N1CC(CC#N)(n2cc3c(n2)c(N2C[C@@H](C)N(C(C)c4ccc5nccnc5c4)C[C@@H]2C)cc(=O)n3C)C1 (stereo partly drawn) [Compound A19, 2-(3-(7-((2S,5R)-2,5-dimethyl-4-(1-(quinoxalin-6-yl)ethyl)piperazin-1-yl)-4-methyl-5-oxo-4,5-dihydro-2H-pyrazolo[4,3-b]pyridin-2-yl)-1-(ethylsulfonyl)azetidin-3-yl)acetonitrile]"
39 µM,> 150 µM,"CC(c1ccc2nccnc2c1)N1C[C@H](C)N(c2cc(=O)n(C)c3cn(C(CC#N)C4CCCC4)nc23)C[C@H]1C (stereo partly drawn) [Compound A20, 3-cyclopentyl-3-(7-((2S,5R)-2,5-dimethyl-4-(1-(quinoxalin-6-yl)ethyl)piperazin-1-yl)-4-methyl-5-oxo-4,5-dihydro-2H-pyrazolo[4,3-b]pyridin-2-yl)propanenitrile]"
0.31 µM,5.3 µM,C#CCn1cc2c(n1)c(N1C[C@@H](C)N(C(C)c3ccc4nccnc4c3)C[C@@H]1C)cc(=O)n2C (some centres unmarked) [Compound A21]
13 µM,1.1 µM,"CC#CCn1cc2c(n1)c(N1C[C@@H](C)N([C@H](C)c3ccc4nccnc4c3)C[C@@H]1C)cc(=O)n2C [Compound A22a, 2-(but-2-yn-1-yl)-7-((2S,5R)-2,5-dimethyl-4-((R)-1-(quinoxalin-6-yl)ethyl)piperazin-1-yl)-4-methyl-2,4-dihydro-5H-pyrazolo[4,3-b]pyridin-5-one]"
0.072 µM,0.19 µM,"CC#CCn1cc2c(n1)c(N1C[C@@H](C)N([C@@H](C)c3ccc4nccnc4c3)C[C@@H]1C)cc(=O)n2C [Compound A22b, 2-(but-2-yn-1-yl)-7-((2S,5R)-2,5-dimethyl-4-((S)-1-(quinoxalin-6-yl)ethyl)piperazin-1-yl)-4-methyl-2,4-dihydro-5H-pyrazolo[4,3-b]pyridin-5-one]"
0.057 µM,0.12 µM,"CC#CCn1cc2c(n1)c(N1C[C@@H](CC)N(C(C)c3ccc4nccnc4c3)C[C@@H]1CC)cc(=O)n2C (stereo partly drawn) [Compound A23, 2-(but-2-yn-1-yl)-7-((2S,5R)-2,5-diethyl-4-(1-(quinoxalin-6-yl)ethyl)piperazin-1-yl)-4-methyl-2,4-dihydro-5H-pyrazolo[4,3-b]pyridin-5-one]"
4.3 µM,0.15 µM,"C=C(C)n1cc2c(n1)c(N1C[C@@H](C)N(C(C)c3ccc4nccnc4c3)C[C@@H]1C)cc(=O)n2C (stereo partly drawn) [Compound A24, 7-((2S,5R)-2,5-dimethyl-4-(1-(quinoxalin-6-yl)ethyl)piperazin-1-yl)-4-methyl-2-(prop-1-en-2-yl)-2,4-dihydro-5H-pyrazolo[4,3-b]pyridin-5-one]"
0.51 µM,0.054 µM,"C=C(C)n1cc2c(n1)c(N1C[C@@H](CC)N(C(C)c3ccc4nccnc4c3)C[C@@H]1CC)cc(=O)n2C (stereo partly drawn) [Compound A25, 7-((2S,5R)-2,5-diethyl-4-(1-(quinoxalin-6-yl)ethyl)piperazin-1-yl)-4-methyl-2-(prop-1-en-2-yl)-2,4-dihydro-5H-pyrazolo[4,3-b]pyridin-5-one]"
98 µM,0.0043 µM,"C=C(C)n1cc2c(n1)c(N1C[C@@H](C)N(Cc3ccc(OC(F)(F)F)cc3)C[C@@H]1C)cc(=O)n2C [Compound A26, 7-((2S,5R)-2,5-dimethyl-4-(4-(trifluoromethoxy)benzyl)piperazin-1-yl)-4-methyl-2-(prop-1-en-2-yl)-2,4-dihydro-5H-pyrazolo[4,3-b]pyridin-5-one]"
> 10 µM,0.0043 µM,C=C(C)n1cc2c(n1)c(N1C[C@@H](CC)N(Cc3ccc(OC(F)(F)F)cc3)C[C@@H]1CC)cc(=O)n2C [Compound A27]
0.11 µM,23 µM,"COCc1cc(F)ccc1C(C)N1C[C@H](C)N(c2cc(=O)n(C)c3cn(CC#N)nc23)C[C@H]1C (stereo partly drawn) [Compound A29, 2-(7-((2S,5R)-4-(1-(4-fluoro-2-(methoxymethyl)phenyl)ethyl)-2,5-dimethylpiperazin-1-yl)-4-methyl-5-oxo-4,5-dihydro-2H-pyrazolo[4,3-b]pyridin-2-yl)acetonitrile]"
0.11 µM,5.1 µM,COCc1cc(C(C)N2C[C@H](C)N(c3cc(=O)n(C)c4cn(CC#N)nc34)C[C@H]2C)ccc1F (some centres unmarked) [Compound A30]
8.1 µM,1.2 µM,COCc1ccc(C(C)N2C[C@H](C)N(c3cc(=O)n(C)c4cn(CC#N)nc34)C[C@H]2C)cc1 (some centres unmarked) [Compound A31]
0.23 µM,1.2 µM,COc1cc(F)c(C(C)N2C[C@H](C)N(c3cc(=O)n(C)c4cn(CC#N)nc34)C[C@H]2C)c(F)c1 (some centres unmarked) [Compound A32]
> 10 µM,0.16 µM,CC(c1ccc(F)cn1)N1C[C@H](C)N(c2cc(=O)n(C)c3cn(CC#N)nc23)C[C@H]1C (some centres unmarked) [Compound A33]
5.8 µM,8.3 µM,CC(c1ccc2ncnn2c1)N1C[C@H](C)N(c2cc(=O)n(C)c3cn(CC#N)nc23)C[C@H]1C (some centres unmarked) [Compound A34]
1.2 µM,0.87 µM,COc1cc(F)c(C(C)N2C[C@H](C)N(c3cc(=O)n(C)c4cn(CC#N)nc34)C[C@H]2C)cc1F (some centres unmarked) [Compound A35]
0.97 µM,0.55 µM,CCC(c1ccc(C2CC2)cc1)N1C[C@H](C)N(c2cc(=O)n(C)c3cn(CC#N)nc23)C[C@H]1C (some centres unmarked) [Compound A36]
5.4 µM,0.14 µM,CC(c1ccccc1)N1C[C@H](C)N(c2cc(=O)n(C)c3cn(CC#N)nc23)C[C@H]1C (some centres unmarked) [Compound A37]
